Measured values reported in patent US12715858B2, “Pyridazinone compounds” (INVENTISBIO CO., LTD., priority 2020, dated 2026).
Read-outs that look alike come from different tables or passages of the source.

Tests used:
Format in all cases: physicochemical
[1] = Interconversion study of potassium salt Form 1 and Form 2 (slurry of equal amounts); details: for XRPD result: 20 V, stirred overnight
Description: Interconversion study were performed in MeOH/EA (1/9, RT or 50° C.) and acetone/water (20/1, RT or 50° C.). Equal amounts of Form 1 and Form 2 were slurried in specified solvents at different temperatures for certain time.

[2] = Solubility in water and bio-relevant media at 37° C. (HPLC of filtrate, pH of filtrate, XRPD of filter cake); details: for solubility at 0.5 h / solubility at 2 h / solubility at 24 h: 37 °C, thermodynamic from solid; for solubility at 0.5 h / Solubility (mg/mL) 2 h / Solubility (mg/mL) 24 h / Solubility (mg/mL) 0.5 h / solubility at 2 h / solubility at 24 h: 37° C.; for solubility at 0.5 h: read-out: Solubility (mg/mL) 0.5 h; for XRPD: filter cake obtained at 2 or 24 hours; for PH 0.5 h / PH 2 h / PH 24 h: pH of the filtrate; for solubility at 2 h: read-out: Solubility (mg/mL) 2 h; for solubility at 24 h: read-out: Solubility (mg/mL) 24 h
Description: Solubility of Form I of free acid, Form 1 and Form 2 of potassium salt, and Form A of sodium salt were tested in water and in bio-relevant media of Simulated Intestinal Fluid (SIF), Simulated Gastric Fluid (SGF), Fasted State Simulated Intestinal Fluid (FaSSIF), and Fed State Simulated Intestinal Fluid (FeSSIF) at 37° C. up to 24 hours. About 12 mg of the sample was weighed into sample vials and then 1.5 mL of each media was added to make suspensions respectively. All suspensions were shaken at 37° C. with 200 rpm.

[3] = Dynamic Vapor Sorption (DVS); details: for hygroscopicity: DVS; for water uptake / weight gain by DVS: at 80% RH (Form I: 0 to 80% RH), 25° C.
Description: Dynamic Vapor Sorption (DVS): Moisture sorption/desorption data was collected on a IGASorp DVS. The sample was placed into a tarred sample chamber and weighed automatically. The sample was dried at 50° C. until the % RH was less than 0.3% and cooled to 25° C. Set the instrument parameters as below.

[4] = Solid state stability at 60° C. and 40° C./75% RH for 7 days (HPLC purity, XRPD); details: for chemical and physical stability: 40° C./75% RH and 60° C. for 7 days; for Purity at Day 7 (Area %) 40° C./75% RH: 7 days at 40° C./75% RH; for Purity at Day 7 (Area %) 40° C./75% RH / Purity at Day 7 (Area %) 60° C.: HPLC; for Purity at Day 7 (Area %) 60° C.: 7 days at 60° C.; for XRPD 40° C./75% RH: crystal form after 7 days at 40° C./75% RH; for XRPD 60° C.: crystal form after 7 days at 60° C.; for Initial Purity (Area %): day 0, HPLC
Description: HPLC analysis was performed with an Agilent HPLC 1260 series instrument.
Appropriate amount of free acid Form I, potassium salts Form 1 and Form 2, and sodium salt Form A were placed at 60° C. and 40° C./75% RH for 7 days. At 0 and 7 days, the samples were dissolved in diluent to prepare a solution of 0.5 mg/mL for HPLC purity analysis. Solid samples were analyzed by XRPD to check the crystal form.

[5] = FaSSIF (Fasted State Simulated Intestinal Fluid), fassif, FaSSIF, LOQ is 0.5 μg/mL
[6] = FeSSIF (Fed State Simulated Intestinal Fluid), fessif, FeSSIF
[7] = water, water, Water, LOQ is 0.5 μg/mL

Question: With Cc1nn(-c2cc(Cl)c(Oc3cc(C(C)C)c(=O)[nH]n3)c(Cl)c2)c(=O)[n-]c1=O.[K+] [Potassium Salts Form 1 and 2] as the compound, how does the XRPD result ([1]; 50° C., Acetone/Water (19/1)) read?
Answer: Form 2

Question: What about the XRPD result ([1]; 50° C., MeOH/EtOAc (1/9)) of the same compound?
Answer: Form 1

Question: What about the XRPD result ([1]; RT, Acetone/Water (19/1)) of the same compound?
Answer: Form 2

Question: And the XRPD result ([1]; RT, MeOH/EtOAc (1/9))?
Answer: Form 1

Question: Which results are given for Cc1nn(-c2cc(Cl)c(Oc3cc(C(C)C)c(=O)[nH]n3)c(Cl)c2)c(=O)[n-]c1=O.[K+] [Potassium salt Form 2]?
Answer: solubility at 0.5 h [2, 5]: 0.0011 mg/mL; Solubility (mg/mL) 2 h ([2]; FaSSIF, LOQ is 0.5 μg/mL): 0.015 mg/mL; Solubility (mg/mL) 24 h ([2]; FaSSIF): 0.0070 mg/mL; Solubility (mg/mL) 0.5 h ([2]; FeSSIF): 0.0041 mg/mL; Solubility (mg/mL) 2 h ([2]; FeSSIF): 0.013 mg/mL; Solubility (mg/mL) 24 h ([2]; FeSSIF): 0.022 mg/mL; Solubility (mg/mL) 0.5 h ([2]; SGF, LOQ is 0.5 μg/mL): <LOQ; Solubility (mg/mL) 2 h ([2]; SGF, LOQ is 0.5 μg/mL): <LOQ; Solubility (mg/mL) 24 h ([2]; SGF, LOQ is 0.5 μg/mL): <LOQ; Solubility (mg/mL) 0.5 h ([2]; SIF, LOQ is 0.5 μg/mL): <LOQ; Solubility (mg/mL) 2 h ([2]; SIF, LOQ is 0.5 μg/mL): <LOQ; Solubility (mg/mL) 24 h ([2]; SIF, LOQ is 0.5 μg/mL): <LOQ; Solubility (mg/mL) 0.5 h ([2]; Water, LOQ is 0.5 μg/mL): 4.63 mg/mL; Solubility (mg/mL) 2 h ([2]; Water, LOQ is 0.5 μg/mL): 6.69 mg/mL; Solubility (mg/mL) 24 h ([2]; Water, LOQ is 0.5 μg/mL): 6.71 mg/mL; XRPD ([2]; FaSSIF): Free acid; XRPD ([2]; FeSSIF): Free acid; XRPD ([2]; SGF): Free acid; XRPD ([2]; SIF): Free acid; XRPD ([2]; Water): Free acid; PH 0.5 h ([2]; FaSSIF): 7.04; PH 2 h ([2]; FaSSIF): 7.49; PH 24 h ([2]; FaSSIF): 7.90; PH 0.5 h ([2]; FeSSIF): 5.09; PH 2 h ([2]; FeSSIF): 5.24; PH 24 h ([2]; FeSSIF): 5.17; PH 0.5 h ([2]; SGF): 1.35; PH 2 h ([2]; SGF): 1.25; PH 24 h ([2]; SGF): 1.25; PH 0.5 h ([2]; SIF): 7.43; PH 2 h ([2]; SIF): 7.51; PH 24 h ([2]; SIF): 7.46; PH 0.5 h ([2]; Water): 10.49; PH 2 h ([2]; Water): 10.62; PH 24 h ([2]; Water): 10.42; DVS Water % at 80% RH ([3]; 80% RH, forms of potassium salt of Compound 1): 1.6%; hygroscopicity [3]: slight hygroscopic; crystal form of solid after the DVS study ([3]; XRPD after DVS): remained unchanged; water uptake / weight gain by DVS [3]: 1.6%; relative stability of Form 1 and Form 2 ([1]; slurry in MeOH/EA and acetone/water, RT or 50° C.): more stable in aqueous solution; chemical and physical stability [4]: chemically and physically stable; Purity at Day 7 (Area %) 40° C./75% RH [4]: 98.97 Area %; Purity at Day 7 (Area %) 60° C. [4]: 99.07 Area %; XRPD 40° C./75% RH [4]: Unchanged; XRPD 60° C. [4]: Unchanged; Initial Purity (Area %) [4]: 99.04 Area %

Question: For Cc1nn(-c2cc(Cl)c(Oc3cc(C(C)C)c(=O)[nH]n3)c(Cl)c2)c(=O)[n-]c1=O.[Na+] [Sodium salt Form A], which solubility at 0.5 h [2, 5] is on record?
Answer: 0.0013 mg/mL

Question: What about the solubility at 2 h [2, 5] of the same compound?
Answer: 0.015 mg/mL

Question: What about the solubility at 24 h ([2]; FaSSIF (Fasted State Simulated Intestinal Fluid), fassif, FaSSIF) of the same compound?
Answer: 0.013 mg/mL

Question: And the solubility at 0.5 h [2, 6]?
Answer: 0.0011 mg/mL

Question: What about the solubility at 2 h [2, 6] of the same compound?
Answer: 0.0029 mg/mL

Question: And the solubility at 24 h [2, 6]?
Answer: 0.012 mg/mL

Question: What about the “Solubility (mg/mL) 0.5 h” value ([2]; SGF, LOQ is 0.5 μg/mL) of the same compound?
Answer: <LOQ

Question: What about the “Solubility (mg/mL) 2 h” value ([2]; SGF, LOQ is 0.5 μg/mL) of the same compound?
Answer: <LOQ

Question: What about the “Solubility (mg/mL) 24 h” value ([2]; SGF, LOQ is 0.5 μg/mL) of the same compound?
Answer: <LOQ

Question: And the “Solubility (mg/mL) 0.5 h” value ([2]; SIF, LOQ is 0.5 μg/mL)?
Answer: <LOQ

Question: What about the “Solubility (mg/mL) 2 h” value ([2]; SIF, LOQ is 0.5 μg/mL) of the same compound?
Answer: <LOQ

Question: And the “Solubility (mg/mL) 24 h” value ([2]; SIF, LOQ is 0.5 μg/mL)?
Answer: <LOQ

Question: And the XRPD ([2]; FaSSIF)?
Answer: Free acid

Question: What about the XRPD ([2]; FeSSIF) of the same compound?
Answer: Free acid

Question: And the XRPD ([2]; SGF)?
Answer: Free acid

Question: And the XRPD ([2]; SIF)?
Answer: Free acid

Question: And the XRPD ([2]; Water)?
Answer: Free acid +

Question: And the “PH 0.5 h” value ([2]; FaSSIF)?
Answer: 7.07

Question: And the “PH 2 h” value ([2]; FaSSIF)?
Answer: 7.33

Question: And the “PH 24 h” value ([2]; FaSSIF)?
Answer: 8.27

Question: What about the “PH 0.5 h” value ([2]; FeSSIF) of the same compound?
Answer: 5.09

Question: What about the “PH 2 h” value ([2]; FeSSIF) of the same compound?
Answer: 5.18

Question: And the “PH 24 h” value ([2]; FeSSIF)?
Answer: 5.26

Question: And the “PH 0.5 h” value ([2]; SGF)?
Answer: 1.24

Question: And the “PH 2 h” value ([2]; SGF)?
Answer: 1.24

Question: What about the “PH 24 h” value ([2]; SGF) of the same compound?
Answer: 1.24

Question: And the “PH 0.5 h” value ([2]; SIF)?
Answer: 7.23

Question: And the “PH 2 h” value ([2]; SIF)?
Answer: 7.60

Question: What about the “PH 24 h” value ([2]; SIF) of the same compound?
Answer: 7.65

Question: And the “PH 0.5 h” value ([2]; Water)?
Answer: 10.76

Question: What about the “PH 2 h” value ([2]; Water) of the same compound?
Answer: 10.81

Question: And the “PH 24 h” value ([2]; Water)?
Answer: 10.63

Question: What about the solubility at 0.5 h [2, 7] of the same compound?
Answer: 2.8 mg/mL

Question: What about the solubility at 2 h [2, 7] of the same compound?
Answer: 3.51 mg/mL

Question: What about the solubility at 24 h [2, 7] of the same compound?
Answer: 4.57 mg/mL

Question: And the hygroscopicity [3]?
Answer: slightly hygroscopic

Question: And the “water uptake / weight gain by DVS” value [3]?
Answer: about 1.6%

Question: What about the “chemical and physical stability” value [4] of the same compound?
Answer: chemically and physically stable

Question: And the “Purity at Day 7 (Area %) 40° C./75% RH” value [4]?
Answer: 98.02 Area %

Question: What about the “Purity at Day 7 (Area %) 60° C.” value [4] of the same compound?
Answer: 98.01 Area %

Question: What about the “XRPD 40° C./75% RH” value [4] of the same compound?
Answer: Unchanged

Question: And the “XRPD 60° C.” value [4]?
Answer: Unchanged

Question: And the “Initial Purity (Area %)” value [4]?
Answer: 97.98 Area %
